Measurements taken from patent US20260374753A1, “NOVEL COMPOUND AND PREPARATION METHOD THEREFOR” (ASTRION INC., priority 2023, published 2026).

What was measured:
[1] = tested on: U87-MG cells; assay: CCK assay of cell proliferation inhibition in human glioblastoma cells; format: cell-based; conditions: 0, 1, 2, and 4 μM, 48 hours, 450 nm
Procedure: Human glioblastoma cell line U87-MG cells were seeded at a density of 1×10^4 cells/well in a 96-well plate and cultured for 24 hours. Thereafter, the cells were treated with DMSO as a control and the compound AON-MG23-01 or AON-MG23-02 of the present invention, and then cultured for 48 hours. The compound of the present invention was treated at various concentrations of 0, 1, 2, and 4 μM. 10 μL of a CCK reagent was added and reacted for an hour, and the absorbance was then measured at 450 nm.

[2] = tested on: U87-MG; assay: Matrigel Transwell invasion (metastasis inhibition) in human glioblastoma; format: cell-based; conditions: 0, 1, 2, and 4 μM, 24 hours, compared to the untreated control
Procedure: A human glioblastoma cell line U87-MG was seeded at a density of 8×10^4 cells/well on Matrigel-coated filters (Transwell invasion chambers, Corning), and the cells were then treated with the compound (AON-MG23-01 or AON-MG23-02; each at 0, 1, 2, and 4 μM) of the present invention, and cultured at 37 °C in a CO2 incubator for 24 hours. After the culturing was completed, the cells were fixed and stained using the Diff-Quick Stain kit (Sysmex, Kobe, Japan). Images of the stained cells were taken under a microscope, the cells were counted using Image J software, and statistical analysis was then performed.

[3] = tested on: EGFR; assay: Western blot comparison with EGFR inhibitor and ANO1 inhibitor: EGFR expression; format: cell-based, human; conditions: U87-MG; 4 μM AON-MG23-02; 48 hours; vs untreated, 2 μM Osimertinib, 100 μM CaCCinh-A01, and their combination
Procedure: (§1) The inhibitory effects of the compound AON-MG23-02 of the present invention, the EGFR inhibitor Osimertinib, and the ANO1 inhibitor CaCCinh-A01 on the expression of ANO1, EGFR, and pEGFR proteins in a glioblastoma cell line were compared. A human glioblastoma cell line U87-MG was seeded at a density of 100×10^4 cells/dish in a 60 mm dish, and cultured for 24 hours. Thereafter, the cells were treated with 4 μM of AON-MG23-02, 2 μM of the EGFR inhibitor Osimertinib, 100 μM of the ANO1 inhibitor CaCCinh-A01, or a combination of 2 μM of Osimertinib and 100 μM of CaCCinh-A01, and cultured for 48 hours. The cultured cells were harvested and the harvested cells were lysed for Western blotting. An anti-ANO1 antibody (Abcam, ab53212), an anti-pEGFR antibody (Cell Signaling, #4407S), an anti-EGFR antibody (Cell Signaling, #4267S), and an anti-ACTIN antibody (sigma, #A2066) were used as antibodies for Western blotting. Protein concentration was quantified using the BSA method (a protein quantitation assay, a bovine serum albumin assay) (Pierce, Cat. 23225). […] The amount of each protein was quantified and analyzed using Image J software.

[4] = tested on: ANO1; assay: Western blot comparison with EGFR inhibitor and ANO1 inhibitor: ANO1 expression; format: cell-based, human; conditions: U87-MG; 4 μM AON-MG23-02; 48 hours; vs untreated, 2 μM Osimertinib, 100 μM CaCCinh-A01, and their combination
Procedure: as §1

[5] = tested on: pEGFR; assay: Western blot comparison with EGFR inhibitor and ANO1 inhibitor: pEGFR expression; format: cell-based, human; conditions: U87-MG; 4 μM AON-MG23-02; 48 hours; vs untreated, 2 μM Osimertinib, 100 μM CaCCinh-A01, and their combination
Procedure: as §1

[6] = tested on: U87-MG; assay: Matrigel invasion comparison with EGFR inhibitor and ANO1 inhibitor in human glioblastoma; format: cell-based; conditions: 4 μM AON-MG23-02, 16 hours, vs untreated, Osimertinib, 100 μM CaCCinh-A01
Procedure: A human glioblastoma cell line U87-MG was seeded at a density of 6×10^4 cells/well on the top of a Matrigel-coated filter (Transwell invasion chambers, Corning), treated with 4 μM of the compound AON-MG23-02 of the present invention, […] of the EGFR inhibitor Osimertinib, 100 μM of the ANO1 inhibitor CaCCinh-A01, or a combination of 4 μM of Osimertinib and 100 μM of CaCCinh-A01, and then cultured at 37 °C in a CO2 incubator for 16 hours. After the culturing was completed, the cells were fixed and stained using a Diff-Quick stain kit (Sysmex, Kobe, Japan). Images of the stained cells were taken under a microscope, the cells were counted using Image J software, and statistical analysis was then performed.

[7] = tested on: ANO1; assay: Western blot: AON-MG23-02 derivatives, ANO1 protein expression in glioblastoma cell line; format: cell-based, human; conditions: U87-MG; 0, 8, 16, and 32 μM; 48 hours; compared to the untreated control
Procedure: (§2) The inhibitory effects of AON-MG23-02 derivatives AON-MG23-05, AON-MG23-06, AON-MG23-07, and AON-MG23-08 on ANO1 and EGFR protein expression in a glioblastoma cell line were compared. A human glioblastoma cell line U87-MG was seeded at a density of 100×10^4 cells/dish in a 60 mm dish, and cultured for 24 hours. Thereafter, the cells were treated with 0, 8, 16, and 32 μM of the AON-MG23-05, AON-MG23-06, AON-MG23-07, and AON-MG23-08 derivatives, respectively, and cultured for 48 hours. The cultured cells were harvested, and the harvested cells were lysed for Western blotting. An anti-ANO1 antibody (Abcam, ab53212), an anti-pEGFR antibody (Cell Signaling, #4407S), an anti-EGFR antibody (Cell Signaling, #4267S), and an anti-ACTIN antibody (sigma, #A2066) were used as antibodies for Western blotting. Protein concentration was quantified using the […] (a protein quantitation assay, a bovine serum albumin assay) (Pierce, Cat. 23225). […] The amount of each protein was quantified and analyzed using Image J software.

[8] = tested on: EGFR; assay: Western blot: AON-MG23-02 derivatives, EGFR protein expression in glioblastoma cell line; format: cell-based, human; conditions: U87-MG; 0, 8, 16, and 32 μM; 48 hours; compared to the untreated control
Procedure: as §2

[9] = tested on: U87-MG; assay: Matrigel invasion (metastasis inhibition) of AON-MG23-02 derivatives in human glioblastoma; format: cell-based; conditions: 0, 8, 16, and 32 μM, 24 hours, compared to the untreated control
Procedure: A human glioblastoma cell line U87-MG was seeded at a density of 8×10^4 cells/well on the top of a Matrigel-coated filter (Transwell invasion chambers, Corning), and then treated with 0, 8, 16, and 32 μM of each of the compound derivatives AON-MG23-05, AON-MG23-06, AON-MG23-07, and AON-MG23-08 of the present invention, and cultured at 37 °C in a CO2 incubator for 24 hours. After the culturing was completed, the cells were fixed and stained using a Diff-Quick stain kit (Sysmex, Kobe, Japan). Images of the stained cells were taken under a microscope, the cells were counted using Image J software, and statistical analysis was then performed.

Row | Compound | inhibition of proliferation of U87-MG cells [1] | degree of penetration into Matrigel [2] | expression of ANO1 protein (derivatives) [7] | expression of EGFR protein (derivatives) [8] | degree of penetration into Matrigel (derivatives) [9] | further results
1 | COc1cc(N2CCC(N3CCN(C)CC3)CC2)ccc1Nc1ncc(Cl)c(Nc2ccccc2N(C2CC2)S(C)(=O)=O)n1 [AON-MG23-01, N-(2-((5-chloro-2-((2-methoxy-4-(4-(4-methylpiperazin-1-yl)piperidin-1-yl)phenyl)amino)pyrimidin-4-yl)amino)phenyl)-N-cyclopropylmethanesulfonamide] | inhibits the proliferation of U87-MG cells | reduced degree of penetration into Matrigel compared to the untreated control | – | – | – | –
2 | COc1cc(N2CCC(N(C)C)CC2)ccc1Nc1ncc(Cl)c(Nc2ccccc2N(C2CC2)S(C)(=O)=O)n1 [AON-MG23-02, N-(2-((5-chloro-2-((4-(4-(dimethylamino)piperidin-1-yl)-2-methoxyphenyl)amino)pyrimidin-4-yl)amino)phenyl)-N-cyclopropylmethanesulfonamide] | inhibits the proliferation of U87-MG cells | reduced degree of penetration into Matrigel compared to the untreated control | – | – | – | expression of EGFR protein (comparison) [3]: reduces the expression of ANO1, EGFR, and pEGFR proteins compared to the untreated control, the EGFR inhibitor-treated group, the ANO1 inhibitor-treated group, and the EGFR inhibitor and ANO1 inhibitor combination-treated group; expression of ANO1 protein (comparison) [4]: reduces the expression of ANO1, EGFR, and pEGFR proteins compared to the untreated control, the EGFR inhibitor-treated group, the ANO1 inhibitor-treated group, and the EGFR inhibitor and ANO1 inhibitor combination-treated group; expression of pEGFR protein (comparison) [5]: reduces the expression of ANO1, EGFR, and pEGFR proteins compared to the untreated control, the EGFR inhibitor-treated group, the ANO1 inhibitor-treated group, and the EGFR inhibitor and ANO1 inhibitor combination-treated group; degree of penetration into Matrigel (comparison with EGFR inhibitor and ANO1 inhibitor) [6]: reduced degree of penetration into Matrigel compared to the untreated control, the EGFR inhibitor-treated group, and the ANO1 inhibitor-treated group
3 | O=C1c2ccccc2CN1Cc1ccc(CCN(CCO)Cc2ccc3ccccc3c2)cc1 [AON-MG23-05, 2-(4-(2-((2-hydroxyethyl)(naphthalen-2-ylmethyl)amino)ethyl)benzyl)isoindolin-1-one] | – | – | reduced expression of ANO1 and EGFR proteins compared to the untreated control | reduced expression of ANO1 and EGFR proteins compared to the untreated control | reduced degree of penetration into Matrigel compared to the untreated control | –
4 | CCN(Cc1ccc2ccccc2c1)CC(O)c1ccc(CN2Cc3ccccc3C2=O)cc1 (stereo not shown) [AON-MG23-06, 2-(4-(2-(ethyl(naphthalen-2-ylmethyl)amino)-1-hydroxyethyl)benzyl)isoindolin-1-one] | – | – | – | – | reduced degree of penetration into Matrigel compared to the untreated control | –
5 | O=C1c2ccccc2CN1Cc1ccc(CCP(=O)(Cc2ccc3ccccc3c2)Cc2ccc3ccccc3c2)cc1 [AON-MG23-07, 2-(4-(2-(bis(naphthalen-2-ylmethyl)phosphoryl)ethyl)benzyl)isoindolin-1-one] | – | – | – | – | reduced degree of penetration into Matrigel compared to the untreated control | –
6 | NC(=O)N(CCc1ccc(CN2Cc3ccccc3C2=O)cc1)Cc1ccc2ccccc2c1 [AON-MG23-08, 1-(naphthalen-2-ylmethyl)-1-(4-((1-oxoisoindolin-2-yl)methyl)phenethyl)urea] | – | – | reduced expression of ANO1 and EGFR proteins compared to the untreated control | reduced expression of ANO1 and EGFR proteins compared to the untreated control | reduced degree of penetration into Matrigel compared to the untreated control | –
